The source of these data is article PMC6690024, “Trading amino acids at the aphid–Buchnera symbiotic interface” (Proceedings of the National Academy of Sciences of the …, 2019).

As usually defined, the Km is the concentration of substrate that gives half-maximal velocity.

For one data set, the target named is T1, ApNEAAT1 (ACYPI008971) (Acyrthosiphon pisum, UniProt A0A8R1W427).
T1 construct: cDNA in pcDNA3.1 or pCS2+, cRNA injected into Xenopus laevis oocytes; SLC36-related AAAP transporter; I161 in TM3
T1 sequence (A0A8R1W427 1-463): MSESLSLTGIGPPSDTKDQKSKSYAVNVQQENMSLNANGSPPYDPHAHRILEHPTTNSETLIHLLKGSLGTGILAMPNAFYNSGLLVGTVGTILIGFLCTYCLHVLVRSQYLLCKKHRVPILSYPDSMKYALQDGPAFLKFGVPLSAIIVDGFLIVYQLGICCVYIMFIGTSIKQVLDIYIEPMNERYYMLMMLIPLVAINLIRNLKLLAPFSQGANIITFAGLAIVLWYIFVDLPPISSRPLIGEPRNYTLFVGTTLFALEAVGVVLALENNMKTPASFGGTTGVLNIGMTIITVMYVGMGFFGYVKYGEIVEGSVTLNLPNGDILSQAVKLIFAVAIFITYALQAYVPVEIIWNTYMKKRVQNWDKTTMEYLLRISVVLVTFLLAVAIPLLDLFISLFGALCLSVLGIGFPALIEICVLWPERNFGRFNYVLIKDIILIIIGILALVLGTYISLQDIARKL
In words: competition with radiolabelled proline uptake in Xenopus oocytes. In kind it is cell-based. As to conditions: pH 5.5, Na+-free, room temperature, 10 mM competitor.

Data set [1] deals with T2, PAT2 (rat slc36a2) (Rattus norvegicus, UniProt Q8K415). In words: trans-stimulation of [3H]proline efflux from Xenopus oocytes. In kind it is cell-based. Details: wild type in pSPORT, cRNA injected into Xenopus laevis oocytes. As to conditions: 10 mM extracellular alanine, Na+-free, pH 5.5, 10 min.
The target of data set [2] is T2, PAT2 (rat slc36a2). As to conditions: 0.1 to 1 mM proline, Na+-free, pH 5.5, -30 mV; H+ symport.
Substrate in data set [3]: O=C(O)[C@@H]1CCCN1
In words: cells, lysate or membranes. As to conditions: pH 5.5, Na+-free, room temperature, 40 min, labelled compound.

Setting [4] is: also direct uptake at 10 µM (Figure 4A).

T2 sequence (Q8K415 whole entry): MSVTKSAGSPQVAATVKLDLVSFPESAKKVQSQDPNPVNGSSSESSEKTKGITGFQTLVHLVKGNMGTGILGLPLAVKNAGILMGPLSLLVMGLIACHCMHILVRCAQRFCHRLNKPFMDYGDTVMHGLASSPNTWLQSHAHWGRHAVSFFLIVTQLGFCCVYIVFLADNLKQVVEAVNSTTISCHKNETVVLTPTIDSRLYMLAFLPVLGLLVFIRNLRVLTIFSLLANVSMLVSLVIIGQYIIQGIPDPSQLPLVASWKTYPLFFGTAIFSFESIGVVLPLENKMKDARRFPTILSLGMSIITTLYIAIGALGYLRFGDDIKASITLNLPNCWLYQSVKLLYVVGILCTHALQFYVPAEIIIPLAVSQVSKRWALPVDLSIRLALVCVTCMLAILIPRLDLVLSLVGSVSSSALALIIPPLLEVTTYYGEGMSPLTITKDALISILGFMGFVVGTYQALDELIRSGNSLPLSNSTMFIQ

In the case of `O=C(O)[C@H]1CCCN1` [D-proline], the “% control proline uptake at 10 mM” value at ApNEAAT1 (ACYPI008971) is “small NEAAs (such as glycine and L- and D-proline, serine, alanine, and cysteine)”.
As for `C[C@H](N)C(=O)O` [Ala, alanine], the “trans-stimulation of [3H]proline efflux from Xenopus oocytes” value on PAT2 (rat slc36a2) [1] was “In PAT2-expressing oocytes, alanine trans-stimulation of [3H]proline efflux was evident”. Also, the “% control proline uptake at 10 mM” value on ApNEAAT1 (ACYPI008971) (setting [4]) was “smaller dipolar L- and D-amino acids (including proline, alanine, serine, cysteine, and glycine)”.
Consider `N[C@@H](CS)C(=O)O` [Cys, cysteine], for which the “% control proline uptake at 10 mM” value at ApNEAAT1 (ACYPI008971) (also trans-stimulates [3H]proline efflux (Figure 4D)) is recorded as “Cysteine is thus demonstrated to be an ApNEAAT1 substrate by its ability to trans-stimulate”.
As to `N[C@@H](CO)C(=O)O` [Ser, serine], the “% control proline uptake at 10 mM” value on ApNEAAT1 (ACYPI008971) (setting [4]) was “smaller dipolar L- and D-amino acids (including proline, alanine, serine, cysteine, and glycine)”.
As to `O=C(O)[C@@H]1CCCN1` [Pro, proline], the “two-electrode voltage clamp of Xenopus oocytes, proline-induced inward current” value at PAT2 (rat slc36a2) [2] is “Proline-associated inward current in PAT2-expressing but not ApNEAAT1-expressing or uninjected (control) oocytes”.
Regarding `C[C@@H](O)[C@H](N)C(=O)O` [Thr, threonine], the “% control proline uptake at 10 mM” value on ApNEAAT1 (ACYPI008971) (weak) was “weaker interactions with amino acids of slightly larger side-chain (e.g., threonine)”.

B1: ApNEAAT1 (ACYPI008971) (Acyrthosiphon pisum) (protein)
chain: T1 sequence (A0A8R1W427 1-463)
Turning to B1, in data set [3], the Km was 179 ± 33 µM.
